Data from patent EP4741387A1, “CRYSTAL FORM OF BIPYRIMIDINE COMPOUND, PREPARATION METHOD THEREFOR AND USE THEREOF” (Jiangsu Yahong Meditech Co., Ltd., priority 2023, dated 2025).
In brackets after ≈: the same amount, converted by molar mass. Marks after values point to notes of the source that are not given here.

Key:
[1] = Dynamic vapor sorption (DVS); assay type: physicochemical
[2] = Pharmacokinetic study of intragastric administration of suspension; assay type: in vivo; conditions: male SD rats, result in words
Experimental: Crystal form I was used in pharmacokinetic studies in rats. Twelve male SD rats were weighed before administration, and housed using standard feeding methods. Animals were housed in standard cages with free access to food and water during the study. Rats were intragastrically administered the suspension of crystal form I. 40 µL of blood was collected at each sampling point, and placed in an EDTA-containing anticoagulant tube. After centrifugation, 20 µL of plasma was collected. All samples were immediately frozen in a -80°C refrigerator after collection.

[3] = Trituration study of crystal form I (XRPD); assay type: physicochemical; conditions: manual trituration 1 min or 3 min, without solvent, with water or ethanol
Experimental: Approximately 50 mg of crystal form I was manually triturated in a mortar using the condition shown in Table 5, and XRPD was carried out to investigate the crystal form of the triturated solid.

[4] = Stability subjected to temperature and humidity (LC analysis); assay type: physicochemical; conditions: solid powder, 30 days
Experimental: (§1) The HPLC for solubility and stability is carried out using a Phenomenex Luna C18 (2), 3 µm, 2X50 mm chromatographic column.
1 to 3 mg of crystal form I solid powder was weighed, and placed at 60°C or 60°C / 75% RH for 30 days. Samples were collected for LC study and analysis.

[5] = Stability subjected to temperature and humidity (XRPD of crystal form); assay type: physicochemical; conditions: solid powder, 30 days
Experimental: The instrument is Shimadzu XRD-6000, and the samples are scanned according to the following parameters: The ray source is Cu~Kα target (1.54056 Å).
In addition, an appropriate amount of crystal form I solid powder was weighed, and placed under stability conditions (40°C / 75% RH, 60°C / 75% RH) for 30 days. Samples were collected for XRPD.

[6] = Stability subjected to light (LC analysis); assay type: physicochemical
Experimental: as §1
An appropriate amount of crystal form I solid powder was weighed, and placed in a light-stabilized chamber to irradiate under ICH light intensity conditions (at least greater than 1.2*10^6 Lux*h, illuminance of 4500±500 Lux, and intensity of 200 w*hr/m^2). Samples were collected for LC study and analysis.

[7] = Stability to forced degradation (oxidative and alkali); assay type: physicochemical; conditions: 1 mg/mL in 90% acetonitrile
Experimental: as §1
3 mg of crystal form I was weighed to formulate a stock solution of 1 mg/mL with 3 mL of 90% acetonitrile. Stability subjected to oxidative degradation (degraded with 3% H2O2 at 40°C for 1.5 hours) and alkali degradation (degraded with 0.1 N NaOH at 40°C for 2 hours) was studied.

[8] = Solubility study of crystal form I; assay type: physicochemical; conditions: pH 7.4 phosphate buffer (37°C for 24 hours)
[9] = Solubility study of crystal form I; assay type: physicochemical; conditions: for solubility: thermodynamic from solid
Experimental: as §1
50 µL or 100 µL of the solvent shown in Table 6 was gradually added to 2 mg of crystal form I, and the resulting mixture was manually shaken, vortexed, or sonicated to dissolve. Addition of solvent was stopped if the concentration was below 1 mg/mL. The solubility was calculated based on the sample amount and the total amount of solvent added.

- hygroscopicity ([1]; DVS, result in words): non-hygroscopic
- crystal form after DVS (XRPD) ([1]; XRPD before and after DVS): did not change
- water absorption rate ([1]; from 0% RH to 95% RH, 25°C): 0.02%
- bioavailability [2]: high
- exposure [2]: high
- plasma concentration [2]: high
- crystal form after trituration (XRPD) [3]: all crystal form I
- change of content of the main component ([4]; 60°C / 75% RH): less than 0.2%
- change of content of the main component ([4]; 60°C): less than 0.2%
- crystal form change (XRPD) ([5]; 40°C / 75% RH): did not change its crystal form
- crystal form change (XRPD) ([5]; 60°C / 75% RH): did not change its crystal form
- photostability ([6]; ICH light conditions, result in words): photostable
- change of content of the main component ([6]; solid powder, ICH light intensity conditions (>1.2*10^6 Lux*h, 200 w*hr/m^2)): less than 0.2%
- degradation ([7]; alkali degradation: 0.1 NaOH at 40°C for 2 hour): only slight degradation
- degradation ([7]; oxidative degradation: 3% H2O2 at 40°C for 1.5 hours): only slight degradation
- solubility at 24 h ([8]; aqueous buffer, thermodynamic from solid): 0.31 mg/mL (≈ 0.57 mM)
- solubility [8]: 0.31 * mg/mL
- solubility ([9]; acetone, organic solvent or mixture): > 34.4 mg/mL
- solubility ([9]; acetonitrile, organic solvent or mixture): 14.2 to 28.4 mg/mL (≈ 26.1 to 52.2 mM)
- solubility ([9]; acetonitrile-water 9:1, organic solvent or mixture): > 32.4 mg/mL
- solubility ([9]; ethyl acetate, organic solvent or mixture): 14.9 to 29.8 mg/mL (≈ 27.4 to 54.8 mM)
- solubility ([9]; methanol, organic solvent or mixture): > 19.2 mg/mL
- solubility ([9]; methanol-water 1:1, aqueous with cosolvent or surfactant or cyclodextrin): < 0.895 mg/mL
- solubility ([9]; methanol-water 9:1, organic solvent or mixture): > 33.4 mg/mL
- solubility in organic solvent ([9]; organic solvent, result in words): good solubility
- solubility ([9]; pH 1.2 hydrochloric acid solution, pH 1.2, simulated gastric fluid): 8.45 to 16.9 mg/mL (≈ 15.5 to 31.1 mM)
Compound: COc1cnc(-c2c(OC)ncnc2C2CC2)nc1NCC12CCC(c3nc(C(F)(F)F)cn3C)(CC1)CC2 [crystal form I, 4'-cyclopropyl-5,6'-dimethoxy-N-((4-(1-methyl-4-(trifluoromethyl)-1H-imidazol-2-yl)bicyclo[2.2.2]octan-1-yl)methyl)-[2,5'-bipyrimidin]-4-amine]
